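Cells were grown in 96-well plates and exposed to each compound for 48 hours at five concentrations; endpoints were interpolated linearly between bracketing concentrations, or set to the highest concentration if not reached. GI50 marks 50% less growth. TGI denotes the concentration required for complete inhibition of growth.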
What was measured:
Test in all cases: growth of human tumour cells (NCI), 48 h
SK-MEL-28 melanoma = test system: SK-MEL-28 melanoma
DU-145 prostate = test system: DU-145 prostate
SF-295 CNS = test system: SF-295 CNS
SK-MEL-2 melanoma = test system: SK-MEL-2 melanoma
K-562 leukemia = test system: K-562 leukemia
SF-268 CNS = test system: SF-268 CNS
NCI-H23 lung = test system: NCI-H23 lung
COLO 205 colon = test system: COLO 205 colon
CCRF-CEM leukemia = test system: CCRF-CEM leukemia
MCF7 breast = test system: MCF7 breast
MDA-MB-435 = test system: MDA-MB-435
TK-10 renal = test system: TK-10 renal
OVCAR-4 ovarian = test system: OVCAR-4 ovarian
OVCAR-3 ovarian = test system: OVCAR-3 ovarian
A498 renal = test system: A498 renal
HCT-116 colon = test system: HCT-116 colon
MALME-3M melanoma = test system: MALME-3M melanoma
OVCAR-8 ovarian = test system: OVCAR-8 ovarian
IGROV1 ovarian = test system: IGROV1 ovarian
786-0 renal = test system: 786-0 renal
HL-60(TB) leukemia = test system: HL-60(TB) leukemia
OVCAR-5 ovarian = test system: OVCAR-5 ovarian
UACC-257 melanoma = test system: UACC-257 melanoma
T-47D breast = test system: T-47D breast
NCI-H522 lung = test system: NCI-H522 lung
SNB-75 CNS = test system: SNB-75 CNS
M14 melanoma = test system: M14 melanoma
HS 578T breast = test system: HS 578T breast
PC-3 prostate = test system: PC-3 prostate
SK-OV-3 ovarian = test system: SK-OV-3 ovarian
NCI-H226 lung = test system: NCI-H226 lung
MOLT-4 leukemia = test system: MOLT-4 leukemia
KM12 colon = test system: KM12 colon
UO-31 renal = test system: UO-31 renal
UACC-62 melanoma = test system: UACC-62 melanoma
BT-549 breast = test system: BT-549 breast
HOP-92 NSCLC = test system: HOP-92 NSCLC
HOP-62 NSCLC = test system: HOP-62 NSCLC
A549 NSCLC = test system: A549 NSCLC
U251 CNS = test system: U251 CNS
RPMI-8226 leukemia = test system: RPMI-8226 leukemia
SNB-19 CNS = test system: SNB-19 CNS
EKVX NSCLC = test system: EKVX NSCLC
SW-620 colon = test system: SW-620 colon
SF-539 CNS = test system: SF-539 CNS
NCI/ADR-RES ovarian = test system: NCI/ADR-RES ovarian
HCT-15 colon = test system: HCT-15 colon
RXF 393 renal = test system: RXF 393 renal
SR leukemia = test system: SR leukemia
MDA-MB-231 breast = test system: MDA-MB-231 breast
HCC-2998 colon = test system: HCC-2998 colon
HT29 colon = test system: HT29 colon
SK-MEL-5 melanoma = test system: SK-MEL-5 melanoma
LOX IMVI melanoma = test system: LOX IMVI melanoma
NCI-H460 lung = test system: NCI-H460 lung
SN12C renal = test system: SN12C renal
CAKI-1 renal = test system: CAKI-1 renal
ACHN renal = test system: ACHN renal

## CCN(CC)CCNc1ccc(C)c2sc3cc(Cl)ccc3c(=O)c12
SK-MEL-28 melanoma
  GI50: 1.91 µM
  TGI: 3.52 µM
DU-145 prostate
  GI50: 1.78 µM
  TGI: 3.17 µM
SF-295 CNS
  GI50: 1.67 µM
  TGI: 3.16 µM
SK-MEL-2 melanoma
  GI50: 1.88 µM
  TGI: 3.72 µM
K-562 leukemia
  GI50: 1.64 µM
  TGI: 3.44 µM
SF-268 CNS
  GI50: 1.68 µM
  TGI: 3.37 µM
NCI-H23 lung
  GI50: 1.7 µM
  TGI: 3.47 µM
COLO 205 colon
  GI50: 1.62 µM
  TGI: 3.35 µM
CCRF-CEM leukemia
  GI50: 1.44 µM
  TGI: 3.36 µM
MCF7 breast
  GI50: 1.55 µM
  TGI: 3.2 µM
MDA-MB-435
  GI50: 1.7 µM
  TGI: 3.14 µM
TK-10 renal
  GI50: 2.2 µM
  TGI: 3.77 µM
OVCAR-4 ovarian
  GI50: 1.95 µM
  TGI: 5.13 µM
OVCAR-3 ovarian
  GI50: 1.73 µM
  TGI: 3.23 µM
A498 renal
  GI50: 1.89 µM
  TGI: 4.79 µM
HCT-116 colon
  GI50: 1.65 µM
  TGI: 3.15 µM
MALME-3M melanoma
  GI50: 1.84 µM
  TGI: 3.61 µM
OVCAR-8 ovarian
  GI50: 1.9 µM
  TGI: 3.49 µM
IGROV1 ovarian
  GI50: 1.83 µM
  TGI: 4.05 µM
786-0 renal
  GI50: 1.66 µM
  TGI: 3.1 µM
HL-60(TB) leukemia
  GI50: 1.81 µM
  TGI: 3.71 µM
OVCAR-5 ovarian
  GI50: 1.61 µM
  TGI: 3.1 µM
UACC-257 melanoma
  GI50: 1.92 µM
  TGI: 3.42 µM
T-47D breast
  GI50: 1.65 µM
  TGI: 4.02 µM
NCI-H522 lung
  GI50: 2.04 µM
  TGI: 3.77 µM
SNB-75 CNS
  GI50: 1.71 µM
  TGI: 4.98 µM
M14 melanoma
  GI50: 1.8 µM
  TGI: 3.4 µM
HS 578T breast
  GI50: 1.65 µM
  TGI: 3.9 µM
PC-3 prostate
  GI50: 1.54 µM
  TGI: 3.01 µM
SK-OV-3 ovarian
  GI50: 1.77 µM
  TGI: 4.88 µM
NCI-H226 lung
  GI50: 1.74 µM
  TGI: 3.58 µM
MOLT-4 leukemia
  GI50: 1.55 µM
  TGI: 3.28 µM
KM12 colon
  GI50: 1.75 µM
  TGI: 3.26 µM
UO-31 renal
  GI50: 1.32 µM
  TGI: 2.69 µM
UACC-62 melanoma
  GI50: 1.87 µM
  TGI: 3.54 µM
BT-549 breast
  GI50: 2.36 µM
  TGI: 6.95 µM
HOP-92 NSCLC
  GI50: 0.665 µM
  TGI: 2.24 µM
HOP-62 NSCLC
  GI50: 1.44 µM
  TGI: 2.9 µM
A549 NSCLC
  GI50: 1.76 µM
  TGI: 3.28 µM
U251 CNS
  GI50: 1.73 µM
  TGI: 3.22 µM
RPMI-8226 leukemia
  GI50: 1.79 µM
  TGI: 3.86 µM
SNB-19 CNS
  GI50: 1.74 µM
  TGI: 3.51 µM
EKVX NSCLC
  GI50: 1.47 µM
  TGI: 3.1 µM
SW-620 colon
  GI50: 1.86 µM
  TGI: 3.6 µM
SF-539 CNS
  GI50: 1.6 µM
  TGI: 3 µM
NCI/ADR-RES ovarian
  GI50: 1.62 µM
  TGI: 3.23 µM
HCT-15 colon
  GI50: 1.5 µM
  TGI: 3.12 µM
RXF 393 renal
  GI50: 1.57 µM
  TGI: 3.05 µM
SR leukemia
  GI50: 1.6 µM
  TGI: 3.57 µM
MDA-MB-231 breast
  GI50: 1.41 µM
  TGI: 2.93 µM
HCC-2998 colon
  GI50: 1.75 µM
  TGI: 3.58 µM
HT29 colon
  GI50: 1.94 µM
  TGI: 3.48 µM
SK-MEL-5 melanoma
  GI50: 1.68 µM
  TGI: 3.07 µM
LOX IMVI melanoma
  GI50: 1.58 µM
  TGI: 3.01 µM
NCI-H460 lung
  GI50: 1.87 µM
  TGI: 3.54 µM
SN12C renal
  GI50: 1.68 µM
  TGI: 3.44 µM

## O=C1C(Cl)=C(Sc2nnc3c4ccccc4c4ccccc4c3n2)C(=O)c2ccccc21
SK-MEL-28 melanoma
  TGI: 39.6 µM
DU-145 prostate
  TGI: 22 µM
SF-295 CNS
  TGI: 23.3 µM
SK-MEL-2 melanoma
  TGI: 34.8 µM
K-562 leukemia
  TGI: > 59.3 µM
SF-268 CNS
  TGI: 90.6 µM
NCI-H23 lung
  TGI: 19.4 µM
COLO 205 colon
  TGI: 38.9 µM
CCRF-CEM leukemia
  TGI: 14.5 µM
MCF7 breast
  TGI: 28.2 µM
MDA-MB-435
  TGI: 3.41 µM
TK-10 renal
  TGI: 37.4 µM
OVCAR-4 ovarian
  TGI: 29.2 µM
OVCAR-3 ovarian
  TGI: 27.2 µM
A498 renal
  TGI: 37.2 µM
HCT-116 colon
  TGI: 33.3 µM
MALME-3M melanoma
  TGI: 11.6 µM
OVCAR-8 ovarian
  TGI: 29.6 µM
IGROV1 ovarian
  TGI: 21.2 µM
786-0 renal
  TGI: 33.9 µM
HL-60(TB) leukemia
  TGI: 7.59 µM
OVCAR-5 ovarian
  TGI: 45.3 µM
UACC-257 melanoma
  TGI: 30 µM
T-47D breast
  TGI: 19.2 µM
NCI-H522 lung
  TGI: 57.7 µM
SNB-75 CNS
  TGI: 8.77 µM
M14 melanoma
  TGI: 35 µM
HS 578T breast
  TGI: > 100 µM
PC-3 prostate
  TGI: 46.4 µM
SK-OV-3 ovarian
  TGI: 55.3 µM
NCI-H226 lung
  TGI: 40.9 µM
MOLT-4 leukemia
  TGI: 34.4 µM
KM12 colon
  TGI: 30.7 µM
UO-31 renal
  TGI: 28.4 µM
UACC-62 melanoma
  TGI: 29.8 µM
CAKI-1 renal
  TGI: 31.9 µM
BT-549 breast
  TGI: 32.2 µM
HOP-92 NSCLC
  TGI: 33.2 µM
HOP-62 NSCLC
  TGI: 32 µM
A549 NSCLC
  TGI: 71.4 µM
U251 CNS
  TGI: 28.4 µM
RPMI-8226 leukemia
  TGI: 39.1 µM
SNB-19 CNS
  TGI: 36.6 µM
EKVX NSCLC
  TGI: 37.7 µM
SW-620 colon
  TGI: > 65.1 µM
ACHN renal
  TGI: 29.5 µM
SF-539 CNS
  TGI: 32.4 µM
NCI/ADR-RES ovarian
  TGI: > 86.3 µM
HCT-15 colon
  TGI: 42.8 µM
RXF 393 renal
  TGI: 32 µM
SR leukemia
  TGI: > 56 µM
MDA-MB-231 breast
  TGI: 17 µM
HCC-2998 colon
  TGI: 94.2 µM
HT29 colon
  TGI: 62 µM
SK-MEL-5 melanoma
  TGI: 22.4 µM
LOX IMVI melanoma
  TGI: 17.2 µM
NCI-H460 lung
  TGI: 37 µM
SN12C renal
  TGI: 33.1 µM
